Publication PMC4767141, “Discovery of Potent, Orally Bioavailable, Small-Molecule Inhibitors of WNT Signaling from a Cell-Based Pathway Screen” (Journal of Medicinal Chemistry, 2015)

Assays:
ETA (h) = biological target: T1, ETA (h) (Homo sapiens, UniProt P25101); assay: CEREP binding panel; details: agonist radioligand, read-out: % Inhibition of Control Specific Binding
T1 construct: purchased Millipore KinaseProfiler (kinases); Cerep (receptors and ion channels)

δ2 (DOP) (h) = biological target: T2, δ2 (DOP) (h) (Homo sapiens, UniProt P41143); assay: CEREP binding panel; details: agonist radioligand
T2 construct: purchased Millipore KinaseProfiler (kinases); Cerep (receptors and ion channels)

5-HT7 (h) = biological target: T3, 5-HT7 (h) (Homo sapiens, UniProt P34969); assay: CEREP binding panel; details: agonist radioligand, read-out: % Inhibition of Control Specific Binding
T3 construct: purchased Millipore KinaseProfiler (kinases); Cerep (receptors and ion channels)

DRAK1 = biological target: T4, DRAK1 (Homo sapiens, UniProt Q9UEE5); assay: Millipore kinase panel; format: biochemical; details: read-out: % Control
T4 construct: purchased Millipore KinaseProfiler (kinases); Cerep (receptors and ion channels)

EPHA8 = biological target: T5, EPHA8 (Homo sapiens, UniProt P29322); assay: Millipore kinase panel; format: biochemical; details: read-out: % Control
T5 construct: purchased Millipore KinaseProfiler (kinases); Cerep (receptors and ion channels)
T5 sequence (P29322 28-1005): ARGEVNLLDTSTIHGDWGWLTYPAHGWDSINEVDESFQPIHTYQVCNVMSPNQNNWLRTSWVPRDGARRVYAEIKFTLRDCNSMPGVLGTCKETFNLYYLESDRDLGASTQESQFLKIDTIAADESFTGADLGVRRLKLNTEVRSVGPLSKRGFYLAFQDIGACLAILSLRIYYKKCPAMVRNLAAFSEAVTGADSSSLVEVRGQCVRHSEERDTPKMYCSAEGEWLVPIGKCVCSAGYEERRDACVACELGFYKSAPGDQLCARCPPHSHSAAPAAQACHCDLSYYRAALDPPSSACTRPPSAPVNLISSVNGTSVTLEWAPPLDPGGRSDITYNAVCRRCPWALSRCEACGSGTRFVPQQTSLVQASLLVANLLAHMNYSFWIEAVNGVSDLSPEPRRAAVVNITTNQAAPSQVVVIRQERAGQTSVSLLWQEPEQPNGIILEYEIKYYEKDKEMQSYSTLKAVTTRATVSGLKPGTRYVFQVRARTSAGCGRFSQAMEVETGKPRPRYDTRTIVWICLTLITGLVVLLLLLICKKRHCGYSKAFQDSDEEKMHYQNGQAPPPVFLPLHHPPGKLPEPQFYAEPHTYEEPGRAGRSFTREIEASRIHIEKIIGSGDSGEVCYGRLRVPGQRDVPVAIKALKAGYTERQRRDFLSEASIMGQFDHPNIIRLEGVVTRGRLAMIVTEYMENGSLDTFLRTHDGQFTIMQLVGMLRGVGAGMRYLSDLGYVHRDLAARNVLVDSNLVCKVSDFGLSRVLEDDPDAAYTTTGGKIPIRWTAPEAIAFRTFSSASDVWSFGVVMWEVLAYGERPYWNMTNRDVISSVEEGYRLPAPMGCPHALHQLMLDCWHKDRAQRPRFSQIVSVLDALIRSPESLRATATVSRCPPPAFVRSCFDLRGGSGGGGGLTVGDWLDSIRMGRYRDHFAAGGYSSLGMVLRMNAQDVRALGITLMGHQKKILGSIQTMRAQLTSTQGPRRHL

EPHB1 = biological target: T6, EPHB1 (Homo sapiens, UniProt P54762); assay: Millipore kinase panel; format: biochemical; details: read-out: % Control
T6 construct: purchased Millipore KinaseProfiler (kinases); Cerep (receptors and ion channels)
T6 sequence (P54762 18-984): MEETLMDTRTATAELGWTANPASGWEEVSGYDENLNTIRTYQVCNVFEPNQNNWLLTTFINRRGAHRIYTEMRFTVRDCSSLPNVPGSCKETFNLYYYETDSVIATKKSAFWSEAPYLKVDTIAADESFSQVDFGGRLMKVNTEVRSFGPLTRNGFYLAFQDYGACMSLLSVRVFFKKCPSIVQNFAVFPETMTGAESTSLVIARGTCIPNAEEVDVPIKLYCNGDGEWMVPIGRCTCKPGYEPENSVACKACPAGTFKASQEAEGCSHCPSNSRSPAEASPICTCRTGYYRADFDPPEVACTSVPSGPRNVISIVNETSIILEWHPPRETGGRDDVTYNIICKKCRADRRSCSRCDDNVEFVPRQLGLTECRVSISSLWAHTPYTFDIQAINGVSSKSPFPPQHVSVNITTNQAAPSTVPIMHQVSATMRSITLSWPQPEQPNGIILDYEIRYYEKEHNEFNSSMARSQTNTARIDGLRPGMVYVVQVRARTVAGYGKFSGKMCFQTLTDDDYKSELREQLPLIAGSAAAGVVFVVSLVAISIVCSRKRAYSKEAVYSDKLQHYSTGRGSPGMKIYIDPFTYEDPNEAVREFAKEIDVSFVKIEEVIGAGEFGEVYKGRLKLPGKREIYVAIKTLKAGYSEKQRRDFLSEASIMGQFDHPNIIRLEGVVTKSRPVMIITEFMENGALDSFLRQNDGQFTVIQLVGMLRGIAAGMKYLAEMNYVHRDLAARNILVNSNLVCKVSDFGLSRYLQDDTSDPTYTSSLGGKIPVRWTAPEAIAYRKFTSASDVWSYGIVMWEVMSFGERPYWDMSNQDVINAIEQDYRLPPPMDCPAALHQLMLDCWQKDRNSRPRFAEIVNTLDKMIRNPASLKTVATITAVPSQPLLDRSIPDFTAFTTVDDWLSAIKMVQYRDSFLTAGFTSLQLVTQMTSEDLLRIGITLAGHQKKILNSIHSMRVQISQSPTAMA

EPHB3 = biological target: T7, EPHB3 (Homo sapiens, UniProt P54753); assay: Millipore kinase panel; format: biochemical; details: read-out: % Control
T7 construct: purchased Millipore KinaseProfiler (kinases); Cerep (receptors and ion channels)

IKKALPHA = biological target: T8, IKKALPHA (Homo sapiens, UniProt O15111); assay: Millipore kinase panel; format: biochemical; details: read-out: % Control
T8 construct: purchased Millipore KinaseProfiler (kinases); Cerep (receptors and ion channels)

IRAK1 = biological target: T9, IRAK1 (Homo sapiens, UniProt P51617); assay: Millipore kinase panel; format: biochemical; details: read-out: % Control
T9 construct: purchased Millipore KinaseProfiler (kinases); Cerep (receptors and ion channels)
T9 sequence (P51617 whole entry): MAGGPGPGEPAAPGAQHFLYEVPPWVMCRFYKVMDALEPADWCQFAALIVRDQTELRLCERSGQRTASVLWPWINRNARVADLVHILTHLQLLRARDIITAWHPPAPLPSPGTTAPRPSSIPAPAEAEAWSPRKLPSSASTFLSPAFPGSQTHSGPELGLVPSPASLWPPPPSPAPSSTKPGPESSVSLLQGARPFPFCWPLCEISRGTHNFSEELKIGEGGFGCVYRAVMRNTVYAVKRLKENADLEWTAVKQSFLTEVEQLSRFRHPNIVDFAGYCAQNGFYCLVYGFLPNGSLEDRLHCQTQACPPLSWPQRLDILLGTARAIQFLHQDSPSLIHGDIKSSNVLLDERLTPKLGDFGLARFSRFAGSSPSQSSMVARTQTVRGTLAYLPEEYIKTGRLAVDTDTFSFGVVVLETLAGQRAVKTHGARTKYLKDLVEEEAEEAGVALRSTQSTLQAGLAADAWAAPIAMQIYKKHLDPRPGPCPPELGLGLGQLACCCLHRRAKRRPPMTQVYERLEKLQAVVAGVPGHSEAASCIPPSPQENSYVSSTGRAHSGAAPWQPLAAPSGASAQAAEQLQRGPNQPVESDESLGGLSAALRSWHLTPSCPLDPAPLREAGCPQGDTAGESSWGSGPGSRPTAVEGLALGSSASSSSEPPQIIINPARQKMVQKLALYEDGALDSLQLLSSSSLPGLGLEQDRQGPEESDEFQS

JNK1ALPHA1 = biological target: T10, JNK1ALPHA1 (Homo sapiens, UniProt P45983); assay: Millipore kinase panel; format: biochemical; details: read-out: % Control
T10 construct: purchased Millipore KinaseProfiler (kinases); Cerep (receptors and ion channels)

LCK = biological target: T11, LCK (Homo sapiens, UniProt P06239); assay: Millipore kinase panel; format: biochemical; details: for remaining activity at 1 µM: read-out: % Control
T11 construct: purchased Millipore
T11 sequence (P06239 whole entry): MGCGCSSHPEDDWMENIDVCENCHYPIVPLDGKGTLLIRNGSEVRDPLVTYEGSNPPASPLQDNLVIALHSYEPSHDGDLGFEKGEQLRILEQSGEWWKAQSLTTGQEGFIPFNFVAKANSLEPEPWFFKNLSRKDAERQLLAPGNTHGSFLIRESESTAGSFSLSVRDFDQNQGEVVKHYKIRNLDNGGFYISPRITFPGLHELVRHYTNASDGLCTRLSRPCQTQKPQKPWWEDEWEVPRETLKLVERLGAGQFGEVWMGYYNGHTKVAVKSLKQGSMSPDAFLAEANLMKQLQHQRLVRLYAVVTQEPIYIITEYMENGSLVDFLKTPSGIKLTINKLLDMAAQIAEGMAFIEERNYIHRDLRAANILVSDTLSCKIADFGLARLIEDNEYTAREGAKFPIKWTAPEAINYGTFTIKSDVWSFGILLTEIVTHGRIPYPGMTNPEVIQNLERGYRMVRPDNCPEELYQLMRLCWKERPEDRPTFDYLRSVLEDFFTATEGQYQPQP

LIMK1 = biological target: T12, LIMK1 (Homo sapiens, UniProt P53667); assay: Millipore kinase panel; format: biochemical; details: read-out: % Control
T12 construct: purchased Millipore KinaseProfiler (kinases); Cerep (receptors and ion channels)

MKK4 = assay: Millipore kinase panel; format: biochemical; details: 1 μM, ATP at Km
MUSK = biological target: T13, MUSK (Homo sapiens, UniProt O15146); assay: Millipore kinase panel; format: biochemical; details: read-out: % Control
T13 construct: purchased Millipore KinaseProfiler (kinases); Cerep (receptors and ion channels)
T13 sequence (O15146 24-869): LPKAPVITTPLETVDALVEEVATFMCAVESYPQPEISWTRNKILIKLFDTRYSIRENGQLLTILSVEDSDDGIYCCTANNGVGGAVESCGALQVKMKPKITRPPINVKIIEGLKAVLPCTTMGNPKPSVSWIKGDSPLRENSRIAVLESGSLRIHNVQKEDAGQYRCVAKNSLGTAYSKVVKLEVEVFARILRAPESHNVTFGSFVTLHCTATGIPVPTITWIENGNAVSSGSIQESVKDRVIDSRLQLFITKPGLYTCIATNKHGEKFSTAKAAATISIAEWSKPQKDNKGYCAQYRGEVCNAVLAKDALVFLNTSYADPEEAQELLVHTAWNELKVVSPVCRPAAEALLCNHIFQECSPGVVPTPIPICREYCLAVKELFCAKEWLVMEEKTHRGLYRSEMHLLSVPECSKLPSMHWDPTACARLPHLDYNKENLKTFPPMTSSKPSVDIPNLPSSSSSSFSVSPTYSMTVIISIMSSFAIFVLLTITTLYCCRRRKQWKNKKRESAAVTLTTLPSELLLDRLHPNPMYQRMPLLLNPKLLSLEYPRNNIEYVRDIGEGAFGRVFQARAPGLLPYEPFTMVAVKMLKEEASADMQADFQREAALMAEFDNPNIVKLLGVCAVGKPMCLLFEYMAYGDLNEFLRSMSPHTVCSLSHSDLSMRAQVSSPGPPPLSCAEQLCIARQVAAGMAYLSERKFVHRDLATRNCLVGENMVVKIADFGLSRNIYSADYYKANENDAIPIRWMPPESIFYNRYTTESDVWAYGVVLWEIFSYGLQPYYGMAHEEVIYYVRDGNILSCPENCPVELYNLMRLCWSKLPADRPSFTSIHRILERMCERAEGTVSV

PAK3 = biological target: T14, PAK3 (Homo sapiens, UniProt O75914); assay: Millipore kinase panel; format: biochemical; details: read-out: % Control
T14 construct: purchased Millipore KinaseProfiler (kinases); Cerep (receptors and ion channels)

PASK = biological target: T15, PASK (Homo sapiens, UniProt Q96RG2); assay: Millipore kinase panel; format: biochemical; details: read-out: % Control
T15 construct: purchased Millipore KinaseProfiler (kinases); Cerep (receptors and ion channels)

PRAK = biological target: T16, PRAK (Homo sapiens, UniProt Q8IW41); assay: Millipore kinase panel; format: biochemical; details: read-out: % Control
T16 construct: purchased Millipore KinaseProfiler (kinases); Cerep (receptors and ion channels)
T16 sequence (Q8IW41 whole entry): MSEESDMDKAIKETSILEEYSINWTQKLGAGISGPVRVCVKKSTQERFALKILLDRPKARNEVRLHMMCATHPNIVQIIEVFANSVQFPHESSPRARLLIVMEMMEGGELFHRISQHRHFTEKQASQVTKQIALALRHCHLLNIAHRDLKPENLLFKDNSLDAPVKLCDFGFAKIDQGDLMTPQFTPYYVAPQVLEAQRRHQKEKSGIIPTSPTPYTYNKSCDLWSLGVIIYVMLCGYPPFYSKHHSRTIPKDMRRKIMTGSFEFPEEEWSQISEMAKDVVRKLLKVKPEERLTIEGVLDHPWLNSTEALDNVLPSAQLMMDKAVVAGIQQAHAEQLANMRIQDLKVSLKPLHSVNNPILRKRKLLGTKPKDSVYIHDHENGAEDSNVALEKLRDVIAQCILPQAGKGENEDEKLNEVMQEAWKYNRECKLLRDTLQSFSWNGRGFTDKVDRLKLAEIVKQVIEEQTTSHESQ

RIPK2 = biological target: T17, RIPK2 (Homo sapiens, UniProt O43353); assay: Millipore kinase panel; format: biochemical; details: read-out: % Control
T17 construct: purchased Millipore KinaseProfiler (kinases); Cerep (receptors and ion channels)

RSE = biological target: T18, RSE (Homo sapiens, UniProt Q06418); assay: Millipore kinase panel; format: biochemical; details: read-out: % Control
T18 construct: purchased Millipore KinaseProfiler (kinases); Cerep (receptors and ion channels)

YES = biological target: T19, YES (Homo sapiens, UniProt P07947); assay: Millipore kinase panel; format: biochemical; details: read-out: % Control
T19 construct: purchased Millipore KinaseProfiler (kinases); Cerep (receptors and ion channels)

IGF-1R, ACTIVATED = biological target: T20, IGF-1R, ACTIVATED (Homo sapiens, UniProt P08069); assay: Millipore kinase panel; format: biochemical; details: read-out: % Control
T20 construct: purchased Millipore KinaseProfiler (kinases); Cerep (receptors and ion channels)

DDR2 = biological target: T21, DDR2 (Homo sapiens, UniProt Q16832); assay: Millipore kinase panel; format: biochemical; details: read-out: % Control
T21 construct: purchased Millipore KinaseProfiler (kinases); Cerep (receptors and ion channels)

EGFR(L861Q) = biological target: T22, EGFR(L861Q) (Homo sapiens, UniProt P00533, L861Q); assay: Millipore kinase panel; format: biochemical; details: read-out: % Control
T22 construct: purchased Millipore KinaseProfiler (kinases); Cerep (receptors and ion channels)

PKCETA = biological target: T23, PKCETA (Homo sapiens, UniProt P24723); assay: Millipore kinase panel; format: biochemical; details: read-out: % Control
T23 construct: purchased Millipore KinaseProfiler (kinases); Cerep (receptors and ion channels)

SYK = biological target: T24, SYK (Homo sapiens, UniProt P43405); assay: Millipore kinase panel; format: biochemical; details: read-out: % Control
T24 construct: purchased Millipore KinaseProfiler (kinases); Cerep (receptors and ion channels)

MER = biological target: T25, MER (Homo sapiens, UniProt Q12866); assay: Millipore kinase panel; format: biochemical; details: read-out: % Control
T25 construct: purchased Millipore KinaseProfiler (kinases); Cerep (receptors and ion channels)

CK1(Y) = assay: Millipore kinase panel; format: biochemical; details: 1 μM, ATP at Km
Experimental: Supplementary Table S3. Activity of compound 44 tested 1 μM across a panel of 209 non-mutated kinases (Millipore Panel: data expressed as percentage control response versus each kinase tested at its respective Km for ATP). No inhibition was considered sufficient to warrant follow-up with IC50 determination.
% Inhibition of % Inhibition of […]
α1 (non-selective) (antagonist radioligand) 8 NTS1 (NT1) (h) (agonist radioligand) -8 α2 (non-selective) (antagonist radioligand) 0 δ2 (DOP) (h) (agonist radioligand) 22 β1 (h) (agonist radioligand) 5 κ (KOP) (agonist radioligand) 72 […]
AT1 (h) (antagonist radioligand) 8 NOP (ORL1) (h) (agonist radioligand) 3 BZD (central) (agonist radioligand) 18 TP (h) (TXA2/PGH2) (antagonist radioligand) NT B2 (h) (agonist radioligand) 0 5-HT1A (h) (agonist radioligand) 19 […]
CCK1 (CCKA) (h) (agonist radioligand) 2 5-HT2A (h) (antagonist radioligand) 1 D1 (h) (antagonist radioligand) 7 5-HT2B (h) (agonist radioligand) 6
D2S (h) (antagonist radioligand) 5 5-HT3 (h) (antagonist radioligand) 9 ETA (h) (agonist radioligand) -9 5-HT5a (h) (agonist radioligand) 1
GABA (non-selective) (agonist radioligand) 5 5-HT6 (h) (agonist radioligand) 3 GAL2 (h) (agonist radioligand) 2 5-HT7 (h) (agonist radioligand) 1
CXCR2 (IL-8B) (h) (agonist radioligand) -6 sst (non-selective) (agonist radioligand) 4 CCR1 (h) (agonist radioligand) -4 VPAC1 (VIP1) (h) (agonist radioligand) 0 H1 (h) (antagonist radioligand) 16 V1a (h) (agonist radioligand) -7
H2 (h) (antagonist radioligand) -2 Ca2+ channel (L, verapamil site) (phenylalkylamine) (antagonist radioligand) 7 MC4 (h) (agonist radioligand) 4 KV channel (antagonist radioligand) -13 MT1 (ML1A) (h) (agonist radioligand) 34 SKCa channel (antagonist radioligand) 3 M1 (h) (antagonist radioligand) 21 Na+ channel (site 2) (antagonist radioligand) 29 M2 (h) (antagonist radioligand) 38 Cl- channel (GABA-gated) (antagonist radioligand) 31 M3 (h) (antagonist radioligand) 46 norepinephrine transporter (h) (antagonist radioligand) 14 NK2 (h) (agonist radioligand) -17 dopamine transporter (h) (antagonist radioligand) 40 5-HT transporter (h) (antagonist radioligand) 70 […]
receptors, ion channels and enzymes (CEREP). Results are expressed as percent inhibition of control specific binding. […]
kinases (Millipore Panel: data expressed as percentage control response versus each kinase tested […]
at its respective Km for ATP).
Supplementary Figure S1. Dose-dependent reduction of endogenous cMYC mRNA measured by RT-PCR (n = 8) after treatment of 7dF3 cells with 74 at the stated concentration for 2 h […]

T1 sequence (P25101 21-427): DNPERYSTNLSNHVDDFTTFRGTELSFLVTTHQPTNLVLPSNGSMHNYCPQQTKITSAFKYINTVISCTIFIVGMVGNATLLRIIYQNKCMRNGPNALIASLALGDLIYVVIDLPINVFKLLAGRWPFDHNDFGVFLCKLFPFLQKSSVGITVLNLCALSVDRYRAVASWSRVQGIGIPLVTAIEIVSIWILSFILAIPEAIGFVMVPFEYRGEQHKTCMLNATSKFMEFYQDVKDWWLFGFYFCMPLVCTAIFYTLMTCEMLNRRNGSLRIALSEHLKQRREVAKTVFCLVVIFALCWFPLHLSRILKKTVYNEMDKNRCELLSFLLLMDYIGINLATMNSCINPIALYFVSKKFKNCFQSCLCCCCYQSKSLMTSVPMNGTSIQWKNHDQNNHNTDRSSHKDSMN

Structure (SMILES) | inhibition at 10 µM (ETA (h)) [%] | inhibition at 10 µM (5-HT7 (h)) [%] | remaining activity at 1 µM (EPHA8) [%] | remaining activity at 1 µM (EPHB1) [%] | remaining activity at 1 µM (EPHB3) [%] | remaining activity at 1 µM (IKKALPHA) [%] | remaining activity at 1 µM (IRAK1) [%] | remaining activity at 1 µM (JNK1ALPHA1) [%] | remaining activity at 1 µM (LCK) [%] | remaining activity at 1 µM (LIMK1) [%] | % Control (MKK4) [%] | remaining activity at 1 µM (MUSK) [%] | remaining activity at 1 µM (PASK) [%] | remaining activity at 1 µM (PRAK) [%] | remaining activity at 1 µM (RIPK2) [%] | remaining activity at 1 µM (RSE) [%] | remaining activity at 1 µM (YES) [%] | remaining activity at 1 µM (IGF-1R, ACTIVATED) [%] | also measured
O=C1NCCC12CCN(c1c(Cl)cncc1-c1ccc(N3CCOCC3)cc1)CC2 [Compound 44, 8-(3-Chloro-5-(4-morpholin-4-ylphenyl)pyridin-4-yl)-2,8-diazaspiro[4.5]decan-1-one] | -3 | 9 | -3 | -1 | 17 | 22 | 4 | 0 | 13 | -3 | 46 | 10 | 1 | -8 | 3 | 7 | -11 | 3 | inhibition at 10 µM (δ2 (DOP) (h); read-out: % Inhibition of Control Specific Binding): 12%; remaining activity at 1 µM (DRAK1): 4%; remaining activity at 1 µM (PAK3): 17%
Cn1cc(-c2ccc(-c3cncc(Cl)c3N3CCC4(CCNC4=O)CC3)cc2)cn1 [Compound 74, 8-(3-Chloro-5-(4-(1-methyl-1H-pyrazol-4-yl)phenyl)pyridin-4-yl)-2,8-diazaspiro[4.5]decan-1-one] | -9 | 1 | -7 | -7 | -2 | 4 | -9 | -9 | 10 | 0 | 13 | 6 | 18 | 13 | -6 | -17 | 7 | 11 | % Inhibition of Control Specific Binding (δ2 (DOP) (h); 10 μM): 22%; remaining activity at 1 µM (DDR2): 5%; remaining activity at 1 µM (EGFR(L861Q)): 0%; IC50 (LCK; ATP at Km): > 10 µM; remaining activity at 1 µM (PKCETA): -13%; remaining activity at 1 µM (SYK): 5%; remaining activity at 1 µM (MER): -6%; % Control (CK1(Y)): -4%
